Laboratory results: PubChem BioAssay AID1919016 (Molecular Pharmacology Branch, DTP, NCI, 2023)
“And” between values parts separate entries of the source, which are not always exact repeats. Equal entries are not always repeated.

System: NCI-H196 complex spheroid growth, percent test/control
Assay: Anticancer human tumor NCI-H196 cell line growth inhibition [AhR];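 also: seven days of drug exposure starting three days after plating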;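 as to viability, T/C: 100% = DMSO vehicle control wells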
Conditions: for viability, T/C: stronger effect = lower value; active = viability on the fitted dose curve at most 10% of control; inactive = the rest
Excerpt: Multicellular complex tumor spheroid response to aryl hydrocarbon receptor antagonists in combination with a variety of drugs and investigational agents in selected tumor cell lines
The current study was undertaken to assess response to aryl hydrocarbon receptor antagonists in combination with standard-of-care drugs and investigational agents in solid tumor complex spheroid models. Complex spheroids include a stromal component modeled by human endothelial cells (HUVEC) and fibroblasts modeled by human mesenchymal stem cells (MSCs). The concentration ranges selected for each drug and investigational agent were based upon clinically achievable concentrations if the clinical Cmax of the agent was known.
Compounds. The drugs and investigational agents: BAY 2416964 (NSC825713), GNF351 (NSC835774), CH-223191 (NSC835775), CPI-455 (NSC825282), aza-TdCyd (NSC777586), decitabine (NSC127716), belinostat (NSC758774), entinostat (NSC756642), pevonedistat (NSC761192), tazemetostat (NSC777109), talazoparib (NSC765396), olaparib (NSC753686), selinexor (NSC780203), nedisertib (M3814, NSC802822), bortezomib (NSC756655), venetoclax (NSC766270), doxorubicin (NSC123127), elimusertib (BAY189344, NSC800525), ceralasertib (AZD6738, NSC777638), TAK-243 (NSC785004), alisertib (NSC759677), etoposide (NSC141540), topotecan (NSC609699), eribulin (NSC707389), gemcitabine (NSC613327), carboplatin (NSC241240), cisplatin (NSC119875), and SN-38 (NSC673596) were obtained from the National Cancer Institute (NCI) Developmental Therapeutics Program Chemical Repository (32). The FDA-approved anticancer drug set is available from the Developmental Therapeutics Program at https://dtp.cancer.gov/organization/dscb/obtaining/available plates.htm. […] The stock solutions were prepared in dimethyl sulfoxide (DMSO, Sigma-Aldrich, St. Louis, MO, cat. D2650), except for the platinum compounds which were prepared in saline (Quality Biological, Gaithersburg, MD, cat. 114-055-101), at 800-fold the tested concentration and stored at -70 degrees C prior to their use. All drugs and investigational agents were tested over a range starting from a high concentration at or near the clinical Cmax and decreasing in half-log increments. If the clinical Cmax for an agent had not been determined, the highest concentration tested was 10 microM (Table 1).
Cell Culture. All cells were maintained in an incubator at 37 degrees C and 5% CO2 with 95% humidity. The PDC lines were cultured according to standard operating procedures established by the NCI PDMR (https://pdmr.cancer.gov). Briefly, all PDCs were thawed and cultured in Matrigel-coated flasks prepared with a working solution of 1X Ham's F-12 nutrient mix, without supplementation (Invitrogen, Waltham, MA, cat. 11765054), 100 U/mL penicillin-streptomycin (Invitrogen, cat. 15140122), and 2.5% Matrigel (Corning Inc., Corning, NY, cat. 354248) for the first three passages. All PDCs were cultured in complete DMEM/F-12 media containing advanced DMEM/F-12 (Invitrogen, cat. 12634028), 4.9% defined fetal bovine serum, heat inactivated (HyClone Laboratories Inc., Logan, UT, cat. SH30070.03HI), 389 ng/mL hydrocortisone (Sigma-Aldrich, cat. H4001), 9.7 ng/mL human EGF recombinant protein (Invitrogen, cat. PHG0313), 23.4 microg/mL adenine (Sigma-Aldrich, cat. A2786), 97.3 U/mL penicillin-streptomycin (Invitrogen, cat. 15140122), 1.9 mM L-glutamine (Invitrogen, cat. 25030081), and 9.7 microM Y-27632 dihydrochloride (Tocris Bioscience, Bristol, United Kingdom, cat. 1254). The PDCs were cultured in complete DMEM/F12 media without 10 microM Y-27632 dihydrochloride for at least two passages prior to the screen. The established cell lines NCI-H1341 and […] were cultured in DMEM/F-12, HEPES (Invitrogen, cat. 11330032), 5% defined fetal bovine serum (HyClone Laboratories Inc., cat. SH30070.03), ITS premix universal culture supplement [insulin (5 microg/mL), transferrin (5 microg/mL), and selenious acid (5 ng/mL)] […]

[1] = curve of first compound, second compound 0.1 µM
[2] = curve of first compound, second compound 0.316 µM
[3] = curve of first compound, second compound 1 µM
[4] = curve of first compound, second compound 3.16 µM
[5] = curve of first compound, second compound 10 µM
[6] = second compound 0.1 µM, first compound 0.0316 µM
[7] = second compound 0.1 µM, first compound 0.1 µM
[8] = second compound 0.1 µM, first compound 0.316 µM
[9] = second compound 0.1 µM, first compound 1 µM
[10] = second compound 0.1 µM, first compound 3.16 µM
[11] = second compound 0.1 µM, first compound 10 µM
[12] = second compound 0.316 µM, first compound 0.0316 µM
[13] = second compound 0.316 µM, first compound 0.1 µM
[14] = second compound 0.316 µM, first compound 0.316 µM
[15] = second compound 0.316 µM, first compound 1 µM
[16] = second compound 0.316 µM, first compound 3.16 µM
[17] = second compound 0.316 µM, first compound 10 µM
[18] = second compound 1 µM, first compound 0.0316 µM
[19] = second compound 1 µM, first compound 0.1 µM
[20] = second compound 1 µM, first compound 0.316 µM
[21] = second compound 1 µM, first compound 1 µM
[22] = second compound 1 µM, first compound 3.16 µM
[23] = second compound 1 µM, first compound 10 µM
[24] = second compound 3.16 µM, first compound 0.0316 µM
[25] = second compound 3.16 µM, first compound 0.1 µM
[26] = second compound 3.16 µM, first compound 0.316 µM
[27] = second compound 3.16 µM, first compound 1 µM
[28] = second compound 3.16 µM, first compound 3.16 µM
[29] = second compound 3.16 µM, first compound 10 µM
[30] = second compound 10 µM, first compound 0.0316 µM
[31] = second compound 10 µM, first compound 0.1 µM
[32] = second compound 10 µM, first compound 0.316 µM
[33] = second compound 10 µM, first compound 1 µM
[34] = second compound 10 µM, first compound 3.16 µM
[35] = second compound 10 µM, first compound 10 µM

O=C(c1cc(Cc2n[nH]c(=O)c3ccccc23)ccc1F)N1CCN(C(=O)C2CC2)CC1 + CC(CO)NC(=O)c1cc(-c2ccc(Cl)cc2)nn(-c2cnn(C)c2)c1=O
> 10000 nM: IC50 [1] | IC50 [2] | IC50 [3] | IC50 [4] | IC50 [5]
inactive: viability, T/C [6] 109% | viability, T/C [7] 114% | viability, T/C [8] 99.8% | viability, T/C [9] 93.3% | viability, T/C [10] 106% | viability, T/C [11] 96.3% | viability, T/C [12] 103% | viability, T/C [13] 109% | viability, T/C [14] 103% | viability, T/C [15] 102% | viability, T/C [16] 105% | viability, T/C [17] 96.8% | viability, T/C [18] 105% | viability, T/C [19] 102% | viability, T/C [20] 99.7% | viability, T/C [21] 102% | viability, T/C [22] 102% | viability, T/C [23] 98.7% | viability, T/C [24] 101% | viability, T/C [25] 103% | viability, T/C [26] 107% | viability, T/C [27] 98.9% | viability, T/C [28] 109% | viability, T/C [29] 94.9% | viability, T/C [30] 113% | viability, T/C [31] 103% | viability, T/C [32] 109% | viability, T/C [33] 109% | viability, T/C [34] 109% | viability, T/C [35] 102%

Cn1ncnc1C1c2n[nH]c(=O)c3cc(F)cc(c23)NC1c1ccc(F)cc1 (stereo not drawn)
inactive: viability, T/C (compound 0.000316 µM) 120% and 100% and 104% | viability, T/C (compound 0.001 µM) 104% and 99.4% and 98.5% | viability, T/C (compound 0.00316 µM) 114% and 102% and 99.6% | viability, T/C (compound 0.01 µM) 92.6% and 105% and 106% | viability, T/C (compound 0.0316 µM) 94.1% and 106% and 103% | viability, T/C (compound 0.1 µM) 114% and 102% and 104%
> 100 nM: IC50 (curve of compound)

CC1COCCN1c1cc(-c2ccnn2C)c2ccnc(-c3ccn[nH]3)c2n1 (stereo not drawn)
> 1000 nM: IC50 (curve of compound)
inactive: viability, T/C (compound 0.00316 µM) 88.9% and 98.2% and 94.9% | viability, T/C (compound 0.01 µM) 96.8% and 97.7% and 89.9% | viability, T/C (compound 0.0316 µM) 87.6% and 92.7% and 96.8% | viability, T/C (compound 0.1 µM) 70.2% and 70.5% and 75.3% | viability, T/C (compound 0.316 µM) 67% and 59.4% and 75.4% | viability, T/C (compound 1 µM) 65.5% and 56.8% and 61.1%

COc1cc(Nc2ncc3c(n2)-c2ccc(Cl)cc2C(c2c(F)cccc2OC)=NC3)ccc1C(=O)O + Cc1ccccc1N=Nc1ccc(NC(=O)c2ccnn2C)c(C)c1
inactive: viability, T/C [6] 83.2% | viability, T/C [7] 94.4% | viability, T/C [8] 108% | viability, T/C [9] 107% | viability, T/C [10] 123% | viability, T/C [11] 116% | viability, T/C [12] 83.3% | viability, T/C [13] 89.3% | viability, T/C [14] 106% | viability, T/C [15] 118% | viability, T/C [16] 119% | viability, T/C [17] 115% | viability, T/C [18] 85.5% | viability, T/C [19] 88.9% | viability, T/C [20] 95.9% | viability, T/C [21] 94.2% | viability, T/C [22] 111% | viability, T/C [23] 104% | viability, T/C [24] 85.4% | viability, T/C [25] 86% | viability, T/C [26] 102% | viability, T/C [27] 97.5% | viability, T/C [28] 109% | viability, T/C [29] 117% | viability, T/C [30] 89.8% | viability, T/C [31] 88.4% | viability, T/C [32] 96.3% | viability, T/C [33] 91.1% | viability, T/C [34] 108% | viability, T/C [35] 104%
> 10000 nM: IC50 [1] | IC50 [2] | IC50 [3] | IC50 [4] | IC50 [5]

Nc1ncn(C2CC(O)C(CO)S2)c(=O)n1 (stereo not drawn)
> 300 nM: IC50 (curve of compound)
inactive: viability, T/C (compound 0.000949 µM) 92.7% and 99.1% and 95.1% | viability, T/C (compound 0.003 µM) 107% and 97.7% and 97.9% | viability, T/C (compound 0.00949 µM) 109% (2×) and 117% | viability, T/C (compound 0.03 µM) 109% and 104% and 105% | viability, T/C (compound 0.0949 µM) 118% and 110% and 107% | viability, T/C (compound 0.3 µM) 119% and 96.8% and 117%

CC(C)c1c(-c2ccccc2)nc2c(C#N)c[nH]n2c1=O
> 10000 nM: IC50 (curve of compound)
inactive: viability, T/C (compound 0.0316 µM) 97.3% and 97% and 111% | viability, T/C (compound 0.1 µM) 104% and 102% and 106% | viability, T/C (compound 0.316 µM) 109% and 92.1% and 112% | viability, T/C (compound 1 µM) 102% (2×) and 101% | viability, T/C (compound 3.16 µM) 101% and 102% and 110% | viability, T/C (compound 10 µM) 103% and 97.7% and 96.4%

O=C(C=Cc1cccc(S(=O)(=O)Nc2ccccc2)c1)NO + CC(CO)NC(=O)c1cc(-c2ccc(Cl)cc2)nn(-c2cnn(C)c2)c1=O
active: viability, T/C [11] 1.02% | viability, T/C [17] 0.59% | viability, T/C [23] 0.5% | viability, T/C [29] 0.54% | viability, T/C [35] 0.56%
1630 nM: IC50 [1]
1810 nM: IC50 [5]
1750 nM: IC50 [4]
2020 nM: IC50 [3]
inactive: viability, T/C [6] 107% | viability, T/C [7] 92.2% | viability, T/C [8] 91.3% | viability, T/C [9] 72.2% | viability, T/C [10] 21.6% | viability, T/C [12] 109% | viability, T/C [13] 98.1% | viability, T/C [14] 98.9% | viability, T/C [15] 71.2% | viability, T/C [16] 28% | viability, T/C [18] 101% | viability, T/C [19] 99.5% | viability, T/C [20] 102% | viability, T/C [21] 83.7% | viability, T/C [22] 28.5% | viability, T/C [24] 108% | viability, T/C [25] 109% | viability, T/C [26] 102% | viability, T/C [27] 74.1% | viability, T/C [28] 24.3% | viability, T/C [30] 119% | viability, T/C [31] 106% | viability, T/C [32] 99.9% | viability, T/C [33] 75.1% | viability, T/C [34] 26.9%
1770 nM: IC50 [2]

Cc1ccccc1N=Nc1ccc(NC(=O)c2ccnn2C)c(C)c1
> 10000 nM: IC50 (compound alone, run of 08/22/2022)
inactive: viability, T/C (compound 0.1 µM) 96.4% [middle of 20 runs] | viability, T/C (compound 0.316 µM) 98% [middle of 20 runs] | viability, T/C (compound 3.16 µM) 95.8% [middle of 20 runs] | viability, T/C (compound 10 µM) 93.3% [middle of 20 runs]
